Tests used:
Assay in all cases: Biochemical kinase assay (Reaction Biology, 33P ATP)
Details in all cases: 10 μM ATP
LYN = biological target: T1, LYN (Homo sapiens, UniProt P07948)
T1 construct: purchased Reaction Biology Corporation (assay run at the CRO)
Procedure: (§1) The biochemical kinase assay was performed at Reaction Biology Corporation (www.reactionbiology.com, Malvern, Pa.) following the procedures described in the reference (Anastassiadis T, et al Nat Biotechnol. 2011, 29, 1039). Specific kinase/substrate pairs along with required cofactors were prepared in reaction buffer; 20 mM Hepes pH 7.5, 10 mM MgCl2, 1 mM EGTA, 0.02% Brij35, 0.02 mg/ml BSA, 0.1 mM Na3VO4, 2 mM DTIT, 1% DMSO. Compounds were delivered into the reaction, followed ˜20 minutes later by addition of a mixture of ATP (Sigma, St. Louis Mo.) and ^33P ATP (Perkin Elmer, Waltham Mass.) to a final concentration of 10 μM. Reactions were carried out at room temperature for 120 min, followed by spotting of the reactions onto P81 ion exchange filter paper (Whatman Inc., Piscataway, N.J.). Unbound phosphate was removed by extensive washing of filters in 0.75% phosphoric acid. […] IC50 values and curve fits were obtained using Prism (GraphPad Software).

Src = biological target: T2, Src (Homo sapiens, UniProt P12931)
T2 construct: purchased Reaction Biology Corporation (assay run at the CRO)
Procedure: as §1

RET (V804L) = biological target: T3, RET (V804L) (Homo sapiens, UniProt P07949, V804L)
T3 construct: purchased Reaction Biology Corporation (assay run at the CRO)
Procedure: as §1

RET (E762Q) = biological target: T4, RET (E762Q) (Homo sapiens, UniProt P07949, E762Q)
T4 construct: purchased Reaction Biology Corporation (assay run at the CRO)
Procedure: as §1

RET (Y806H) = biological target: T5, RET (Y806H) (Homo sapiens, UniProt P07949, Y806H)
T5 construct: purchased Reaction Biology Corporation (assay run at the CRO)
Procedure: as §1

RET (A883F) = biological target: T6, RET (A883F) (Homo sapiens, UniProt P07949, A883F)
T6 construct: purchased Reaction Biology Corporation (assay run at the CRO)
Procedure: as §1

RET (V804M) = biological target: T7, RET (V804M) (Homo sapiens, UniProt P07949, V804M)
T7 construct: purchased Reaction Biology Corporation (assay run at the CRO)
Procedure: as §1

RET = biological target: T8, RET (Homo sapiens, UniProt P07949)
T8 construct: purchased Reaction Biology Corporation (assay run at the CRO)
Procedure: as §1

RET-CCDC6 (PTC1) = biological target: T9, RET-CCDC6 (PTC1) (Homo sapiens, UniProt P07949)
T9 construct: fusion transcripts composed of the 3′ end of RET kinase domain and the 5′ end of separate partner genes; CCDC6 N-terminal part (fusion partner); purchased Reaction Biology Corporation (assay run at the CRO); the other entry of the earlier key: CCDC6 (Q16204, Coiled-coil domain-containing protein 6)
Procedure: as §1

YES = biological target: T10, YES (Homo sapiens, UniProt P07947)
T10 construct: purchased Reaction Biology Corporation (assay run at the CRO)
Procedure: as §1

RET (V778I) = biological target: T11, RET (V778I) (Homo sapiens, UniProt P07949, V778I)
T11 construct: purchased Reaction Biology Corporation (assay run at the CRO)
Procedure: as §1

RET (R813Q) = biological target: T12, RET (R813Q) (Homo sapiens, UniProt P07949, R813Q)
T12 construct: purchased Reaction Biology Corporation (assay run at the CRO)
Procedure: as §1

RET (S904F) = biological target: T13, RET (S904F) (Homo sapiens, UniProt P07949, S904F)
T13 construct: purchased Reaction Biology Corporation (assay run at the CRO)
Procedure: as §1

RET (L790F) = biological target: T14, RET (L790F) (Homo sapiens, UniProt P07949, L790F)
T14 construct: purchased Reaction Biology Corporation (assay run at the CRO)
Procedure: as §1

RET (S891A) = biological target: T15, RET (S891A) (Homo sapiens, UniProt P07949, S891A)
T15 construct: purchased Reaction Biology Corporation (assay run at the CRO)
Procedure: as §1

RET-PRKAR1A (PTC2) = biological target: T16, RET-PRKAR1A (PTC2) (Homo sapiens, UniProt P07949)
T16 construct: fusion transcripts composed of the 3′ end of RET kinase domain and the 5′ end of separate partner genes; PRKAR1A N-terminal part (fusion partner); purchased Reaction Biology Corporation (assay run at the CRO); the other entry of the earlier key: PRKAR1A (P10644, cAMP-dependent protein kinase type I-alpha regulatory subunit)
Procedure: as §1

RET (G691S) = biological target: T17, RET (G691S) (Homo sapiens, UniProt P07949, G691S)
T17 construct: purchased Reaction Biology Corporation (assay run at the CRO)
Procedure: as §1

FYN = biological target: T18, FYN (Homo sapiens, UniProt P06241)
T18 construct: purchased Reaction Biology Corporation (assay run at the CRO)
Procedure: as §1

RET-NCOA4 (PTC3) = biological target: T19, RET-NCOA4 (PTC3) (Homo sapiens, UniProt P07949)
T19 construct: fusion transcripts composed of the 3′ end of RET kinase domain and the 5′ end of separate partner genes; NCOA4 N-terminal part (fusion partner); purchased Reaction Biology Corporation (assay run at the CRO)
Procedure: as §1

RET (S904A) = biological target: T20, RET (S904A) (Homo sapiens, UniProt P07949, S904A)
T20 construct: purchased Reaction Biology Corporation (assay run at the CRO)
Procedure: as §1

RET (Y791F) = biological target: T21, RET (Y791F) (Homo sapiens, UniProt P07949, Y791F)
T21 construct: purchased Reaction Biology Corporation (assay run at the CRO)
Procedure: as §1

RET (M918T) = biological target: T22, RET (M918T) (Homo sapiens, UniProt P07949, M918T)
T22 construct: purchased Reaction Biology Corporation (assay run at the CRO)
Procedure: as §1

RET (R749T) = biological target: T23, RET (R749T) (Homo sapiens, UniProt P07949, R749T)
T23 construct: purchased Reaction Biology Corporation (assay run at the CRO)
Procedure: as §1

HCK = biological target: T24, HCK (Homo sapiens, UniProt P08631)
T24 construct: purchased Reaction Biology Corporation (assay run at the CRO)
Procedure: as §1

T24 sequence (P08631 whole entry): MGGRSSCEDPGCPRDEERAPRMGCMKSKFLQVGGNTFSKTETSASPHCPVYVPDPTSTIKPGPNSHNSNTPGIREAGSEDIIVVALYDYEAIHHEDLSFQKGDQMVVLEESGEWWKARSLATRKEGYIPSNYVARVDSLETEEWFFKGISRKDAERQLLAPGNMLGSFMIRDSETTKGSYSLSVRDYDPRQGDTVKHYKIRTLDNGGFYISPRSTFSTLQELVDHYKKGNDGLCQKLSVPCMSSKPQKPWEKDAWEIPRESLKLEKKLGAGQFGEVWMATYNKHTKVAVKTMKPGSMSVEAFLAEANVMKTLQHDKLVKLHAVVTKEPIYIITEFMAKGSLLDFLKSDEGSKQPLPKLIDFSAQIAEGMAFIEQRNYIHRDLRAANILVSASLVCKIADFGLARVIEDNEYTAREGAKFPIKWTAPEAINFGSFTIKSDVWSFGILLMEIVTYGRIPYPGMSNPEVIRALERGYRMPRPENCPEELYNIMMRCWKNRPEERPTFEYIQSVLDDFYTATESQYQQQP
T2 sequence (P12931 whole entry): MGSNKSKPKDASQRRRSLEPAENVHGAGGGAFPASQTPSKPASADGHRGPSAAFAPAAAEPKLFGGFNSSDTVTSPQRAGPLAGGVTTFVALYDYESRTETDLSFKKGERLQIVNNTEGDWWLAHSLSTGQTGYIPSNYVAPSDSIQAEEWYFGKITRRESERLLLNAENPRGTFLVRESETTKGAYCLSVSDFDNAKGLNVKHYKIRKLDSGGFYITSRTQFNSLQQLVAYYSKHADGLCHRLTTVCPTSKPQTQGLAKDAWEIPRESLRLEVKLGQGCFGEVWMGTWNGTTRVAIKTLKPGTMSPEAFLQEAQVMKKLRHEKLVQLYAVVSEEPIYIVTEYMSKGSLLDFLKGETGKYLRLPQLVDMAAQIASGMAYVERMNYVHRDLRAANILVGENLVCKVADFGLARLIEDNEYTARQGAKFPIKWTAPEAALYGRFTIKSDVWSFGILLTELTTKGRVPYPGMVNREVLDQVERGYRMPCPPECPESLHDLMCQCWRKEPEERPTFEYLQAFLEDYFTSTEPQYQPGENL
T6 sequence (P07949 29-1114 A883F): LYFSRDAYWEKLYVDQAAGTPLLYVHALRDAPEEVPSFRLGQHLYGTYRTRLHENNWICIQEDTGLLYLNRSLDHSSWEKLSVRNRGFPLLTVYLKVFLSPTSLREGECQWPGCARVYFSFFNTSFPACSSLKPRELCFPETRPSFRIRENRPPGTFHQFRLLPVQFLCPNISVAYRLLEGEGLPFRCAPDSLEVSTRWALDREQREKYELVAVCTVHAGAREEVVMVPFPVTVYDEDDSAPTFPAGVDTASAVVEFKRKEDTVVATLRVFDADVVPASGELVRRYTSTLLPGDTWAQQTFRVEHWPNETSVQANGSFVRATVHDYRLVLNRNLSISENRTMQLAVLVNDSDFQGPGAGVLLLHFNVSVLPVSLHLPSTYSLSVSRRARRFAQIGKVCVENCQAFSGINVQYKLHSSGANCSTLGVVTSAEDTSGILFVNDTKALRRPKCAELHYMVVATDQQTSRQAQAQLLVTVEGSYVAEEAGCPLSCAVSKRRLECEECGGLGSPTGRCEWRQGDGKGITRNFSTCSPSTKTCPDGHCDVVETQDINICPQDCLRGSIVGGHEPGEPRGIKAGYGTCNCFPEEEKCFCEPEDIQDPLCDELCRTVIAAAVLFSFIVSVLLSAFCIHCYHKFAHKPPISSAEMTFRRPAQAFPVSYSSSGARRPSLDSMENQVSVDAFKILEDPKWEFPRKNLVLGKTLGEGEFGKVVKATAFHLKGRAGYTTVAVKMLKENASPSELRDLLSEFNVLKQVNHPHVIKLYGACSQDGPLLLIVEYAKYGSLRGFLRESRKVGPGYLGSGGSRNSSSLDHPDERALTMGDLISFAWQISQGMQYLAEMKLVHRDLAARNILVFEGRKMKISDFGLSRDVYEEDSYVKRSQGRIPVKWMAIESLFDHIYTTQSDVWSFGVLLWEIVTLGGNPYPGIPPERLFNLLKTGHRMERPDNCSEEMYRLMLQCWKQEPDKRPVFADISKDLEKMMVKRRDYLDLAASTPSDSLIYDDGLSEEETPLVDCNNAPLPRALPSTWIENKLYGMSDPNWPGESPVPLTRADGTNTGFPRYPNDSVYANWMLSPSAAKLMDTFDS
T4 sequence (P07949 29-1114 E762Q): as the sequence (P07949 29-1114 A883F) above, with E734Q, F855A counted along it
T8 sequence (P07949 29-1114): as the sequence (P07949 29-1114 A883F) above, with F855A counted along it
T16 sequence (P07949 with tags, fused parts or gaps): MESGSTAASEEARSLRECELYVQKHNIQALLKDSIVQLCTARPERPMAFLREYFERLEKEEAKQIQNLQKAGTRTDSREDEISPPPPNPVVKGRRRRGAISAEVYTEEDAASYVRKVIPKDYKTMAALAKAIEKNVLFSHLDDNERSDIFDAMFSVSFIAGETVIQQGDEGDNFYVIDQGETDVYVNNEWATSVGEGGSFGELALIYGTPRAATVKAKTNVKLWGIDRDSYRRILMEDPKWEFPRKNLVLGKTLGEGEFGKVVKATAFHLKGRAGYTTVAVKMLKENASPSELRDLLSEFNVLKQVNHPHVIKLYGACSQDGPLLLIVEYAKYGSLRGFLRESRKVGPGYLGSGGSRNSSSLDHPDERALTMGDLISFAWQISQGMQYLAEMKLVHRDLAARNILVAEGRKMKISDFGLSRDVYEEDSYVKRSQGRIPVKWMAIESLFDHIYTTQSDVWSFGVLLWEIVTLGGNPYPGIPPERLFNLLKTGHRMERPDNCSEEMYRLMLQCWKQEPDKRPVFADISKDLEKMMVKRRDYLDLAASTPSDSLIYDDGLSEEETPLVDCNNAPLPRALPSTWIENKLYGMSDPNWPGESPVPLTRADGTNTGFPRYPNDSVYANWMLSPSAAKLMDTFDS

Row | IC50 (LYN) [nM] | IC50 (Src) [nM] | IC50 (RET (V804L)) [nM] | IC50 (RET (E762Q)) [nM] | IC50 (RET (Y806H)) [nM] | IC50 (RET (A883F)) [nM] | IC50 (RET (V804M)) [nM] | IC50 (RET) [nM] | IC50 (RET-CCDC6 (PTC1)) [nM] | IC50 (YES) [nM] | IC50 (RET (V778I)) [nM] | IC50 (RET (R813Q)) [nM] | IC50 (RET (S904F)) [nM] | IC50 (RET (L790F)) [nM] | IC50 (RET (S891A)) [nM] | IC50 (RET-PRKAR1A (PTC2)) [nM] | IC50 (RET (G691S)) [nM] | IC50 (FYN) [nM] | IC50 (RET-NCOA4 (PTC3)) [nM] | IC50 (RET (S904A)) [nM] | also measured | SMILES
1 | 1.97 | 0.875 | 10 | 2.07 | 0.385 | 0.52 | 7.86 | 0.0994 | 0.0893 | 1.72 | < 0.0508 | 0.341 | 0.0621 | 0.12 | 0.664 | 0.129 | 3.01 | 1.81 | 0.0635 | 0.159 | IC50 (RET (Y791F)): < 0.0508 nM; IC50 (RET (M918T)): 0.114 nM; IC50 (RET (R749T)): 0.271 nM; IC50 (HCK): 1.95 nM | C[C@H]1CNC(=O)c2cnn3cc4c(nc23)N(Cc2cc(F)ccc2O1)[C@@H]1CCC[C@@H]1O4 [Compound 1, (3aR,11S,20aS)-7-fluoro-11-methyl-2,3,3a,12,13,20a-hexahydro-1H,5H-17-19-(metheno)cyclopenta[5,6][1,4] oxazino[3,4-i]pyrazolo[4,3-f][1,4,8,10]benzoxatriacyclotridecin-14(11H)-one]
2 | 2.03 | 1.46 | 2350 | 0.58 | 0.261 | 3.08 | 18.8 | 1.01 | 1.97 | 2.64 | 0.233 | 2.46 | 0.364 | 1.31 | 0.303 | 0.29 | 0.941 | 1.94 | 0.691 | 1.22 | IC50 (RET (Y791F)): 7.95 nM; IC50 (RET (M918T)): 1.42 nM; IC50 (RET (R749T)): 0.32 nM; IC50 (HCK): 2.71 nM | C[C@H]1CNC(=O)c2cnn3cc4c(nc23)N(Cc2cc(F)cnc2O1)[C@@H]1CCC[C@@H]1O4 [Compound 5, (3aR,11S,20aS)-7-fluoro-11-methyl-2,3,3a,12,13,20a-hexahydro-1H,5H-17-19-(metheno)cyclopenta[5,6][1,4] oxazino[3,4-i]pyrazolo[4,3-f]pyrido[3,2-l][1,4,8,10]oxatriazacyclotridecin-14(11H)-one]

— patent publication US10745416B2, “Macrocyclic compounds for treating disease” (Turning Point Therapeutics, Inc., priority 2017, dated 2020)
